Assay results published in patent US20020035061A1, “COMPOSITIONS AND METHODS FOR TREATING INFECTIONS USING CATIONIC PEPTIDES ALONE OR IN COMBINATION WITH ANTIBIOTICS” (priority 1996, published 2002).
“And” between values parts separate entries of the source, which are not always exact repeats. Identical values can stand only once.

Legend:
Experiment in all cases: microbe, parasite or virus in culture
Format in all cases: cell-based
[1] = test system: vancomycin / teicoplanin resistant enterococci; conditions: for Peptide MIC Alone: Amikacin section; for FIC: peptide + Amikacin
bacterial isolates = test system: bacterial isolates
[2] = test system: inherently resistant microorganisms
[3] = test system: microorganisms with acquired resistance
[4] = peptide + Gentamicin, P. aeruginosa PA023
[5] = S. maltophilia (strain code stands in r800, not shown)
[6] = peptide + Tobramycin, S. epidermidis SE072
[7] = peptide + Tobramycin, S. epidermidis SE073

KWKLFIKKLTPAVKKVLLTGLPALIS [MBI 29F1]
Amikacin MIC + Peptide ([1]; E. faecalis EFS008): 4 µg/mL
Peptide MIC + Amikacin ([1]; E. faecalis EFS008): 0.5 µg/mL
Peptide MIC Alone ([1]; E. faecalis EFS008): 4 µg/mL
Amikacin MIC + Peptide ([1]; E. faecium EFM004): 8 µg/mL
Peptide MIC + Amikacin ([1]; E. faecium EFM004): 16 µg/mL
Peptide MIC Alone ([1]; E. faecium EFM004): 32 µg/mL
FIC ([1]; E. faecalis EFS008): 0.19
FIC ([1]; E. faecium EFM004): 0.53
Peptide MIC Alone (bacterial isolates; 1. Amikacin, A. baumannii ABI001): 8 µg/mL
Peptide MIC Alone (bacterial isolates; 1. Amikacin, A. baumannii ABI003): 4 µg/mL
Peptide MIC Alone (bacterial isolates; 1. Amikacin, E. coli ECO022): 4 µg/mL
Peptide MIC Alone (bacterial isolates; 1. Amikacin, E. faecalis EFS008): 4 µg/mL
Peptide MIC Alone (bacterial isolates; 1. Amikacin, E. faecium EFM004): 32 µg/mL
Peptide MIC Alone (bacterial isolates; 1. Amikacin, P. aeruginosa PA022): 4 µg/mL
Peptide MIC Alone (bacterial isolates; 1. Amikacin, S. aureus SA014 MRSA): 4 µg/mL
Peptide MIC Alone (bacterial isolates; 1. Amikacin, S. epidermidis SE002): 32 µg/mL
Peptide MIC Alone (bacterial isolates; 1. Amikacin, S. epidermidis SE003): 32 µg/mL
Peptide MIC Alone (bacterial isolates; 1. Amikacin, S. maltophilia SMA021): 8 µg/mL
Peptide MIC Alone (bacterial isolates; 1. Amikacin, S. maltophilia SMA022): 16 µg/mL
Peptide MIC Alone (bacterial isolates; 4. Gentamicin, P. aeruginosa PA023): 128 µg/mL
Peptide MIC Alone (bacterial isolates; 4. Gentamicin, S. maltophilia SMA016): 32 µg/mL
Peptide MIC Alone (bacterial isolates; 4. Gentamicin, S. maltophilia SMA017): 4 µg/mL
Amikacin MIC + Peptide (bacterial isolates; A. baumannii ABI001): 0.25 µg/mL
Peptide MIC + Amikacin (bacterial isolates; A. baumannii ABI001): 4 µg/mL
Amikacin MIC + Peptide (bacterial isolates; A. baumannii ABI003): 2 µg/mL
Peptide MIC + Amikacin (bacterial isolates; A. baumannii ABI003): 2 µg/mL
Peptide MIC + Amikacin (bacterial isolates; E. coli ECO022): 2 µg/mL
Amikacin MIC + Peptide (bacterial isolates; E. faecalis EFS008): 16 µg/mL
Peptide MIC + Amikacin (bacterial isolates; E. faecalis EFS008): 0.125 µg/mL
Amikacin MIC + Peptide (bacterial isolates; E. faecium EFM004): 32 µg/mL
Peptide MIC + Amikacin (bacterial isolates; E. faecium EFM004): 8 µg/mL
Amikacin MIC + Peptide (bacterial isolates; P. aeruginosa PA022): 64 µg/mL
Peptide MIC + Amikacin (bacterial isolates; P. aeruginosa PA022): 0.125 µg/mL
Gentamicin MIC + Peptide (bacterial isolates; P. aeruginosa PA023): 0.125 µg/mL
Peptide MIC + Gentamicin (bacterial isolates; P. aeruginosa PA023): 64 µg/mL
Amikacin MIC + Peptide (bacterial isolates; S. aureus SA014 MRSA): 16 µg/mL
Peptide MIC + Amikacin (bacterial isolates; S. aureus SA014 MRSA): 0.125 µg/mL
Amikacin MIC + Peptide (bacterial isolates; S. epidermidis SE002): 16 µg/mL
Peptide MIC + Amikacin (bacterial isolates; S. epidermidis SE002): 4 µg/mL
Amikacin MIC + Peptide (bacterial isolates; S. epidermidis SE003): 16 µg/mL
Peptide MIC + Amikacin (bacterial isolates; S. epidermidis SE003): 8 µg/mL
Gentamicin MIC + Peptide (bacterial isolates; S. maltophilia SMA016): 16 µg/mL
Peptide MIC + Gentamicin (bacterial isolates; S. maltophilia SMA016): 16 µg/mL
Gentamicin MIC + Peptide (bacterial isolates; S. maltophilia SMA017): 32 µg/mL
Peptide MIC + Gentamicin (bacterial isolates; S. maltophilia SMA017): 0.125 µg/mL
Amikacin MIC + Peptide (bacterial isolates; S. maltophilia SMA021): 8 µg/mL
Peptide MIC + Amikacin (bacterial isolates; S. maltophilia SMA021): 2 µg/mL
Amikacin MIC + Peptide (bacterial isolates; S. maltophilia SMA022): 16 µg/mL
Peptide MIC + Amikacin (bacterial isolates; S. maltophilia SMA022): 4 µg/mL
FIC (bacterial isolates; peptide + Amikacin, A. baumannii ABI001): 0.51
FIC (bacterial isolates; peptide + Amikacin, A. baumannii ABI003): 0.63
FIC (bacterial isolates; peptide + Amikacin, E. coli ECO022): 0.51
FIC (bacterial isolates; peptide + Amikacin, E. faecalis EFS008): 0.28
FIC (bacterial isolates; peptide + Amikacin, E. faecium EFM004): 0.38
FIC (bacterial isolates; peptide + Amikacin, P. aeruginosa PA022): 0.53
FIC (bacterial isolates; peptide + Amikacin, S. aureus SA014 MRSA): 0.53
FIC (bacterial isolates; peptide + Amikacin, S. epidermidis SE002): 0.38
FIC (bacterial isolates; peptide + Amikacin, S. epidermidis SE003): 0.50
FIC (bacterial isolates; peptide + Amikacin, S. maltophilia SMA021): 0.31
FIC (bacterial isolates; peptide + Amikacin, S. maltophilia SMA022): 0.31
FIC (bacterial isolates; [4]): 0.52
FIC (bacterial isolates; peptide + Gentamicin, S. maltophilia SMA016): 0.56
FIC (bacterial isolates; peptide + Gentamicin, S. maltophilia SMA017): 0.53
Peptide MIC + Amikacin ([2]; A. baumannii): 2 µg/mL
Peptide MIC Alone ([2]; A. baumannii, Amikacin section): 8 µg/mL
Peptide MIC + Amikacin ([2]; S. maltophilia): 2 µg/mL
FIC ([2]; peptide + Amikacin, A. baumannii): 0.75
Gentamicin MIC + Peptide ([3]; A. calcoaceticus AC001): 2 µg/mL
Peptide MIC + Gentamicin ([3]; A. calcoaceticus AC001): 4 µg/mL
Peptide MIC Alone ([3]; A. calcoaceticus AC001, Gentamicin section): 8 µg/mL
Gentamicin MIC + Peptide ([3]; P. aeruginosa PA023): 0.125 µg/mL
Peptide MIC + Gentamicin ([3]; P. aeruginosa PA023): 64 µg/mL
Peptide MIC Alone ([3]; P. aeruginosa PA023, Gentamicin section): 128 µg/mL
FIC ([3]; peptide + Gentamicin, A. calcoaceticus AC001): 0.75
FIC [3, 4]: 0.52

KKWWRRALQALKNGLPALIS [MBI 22A1]
Peptide MIC + Tobramycin (bacterial isolates; S. aureus SA014 MRSA): 2 µg/mL
Peptide MIC Alone (bacterial isolates; S. aureus SA014 MRSA): 8 µg/mL
Tobramycin MIC + Peptide (bacterial isolates; S. aureus SA014 MRSA): 4 µg/mL
Peptide MIC + Tobramycin (bacterial isolates; S. epidermidis SE072): 8 µg/mL
Peptide MIC Alone (bacterial isolates; S. epidermidis SE072): 16 µg/mL
Tobramycin MIC + Peptide (bacterial isolates; S. epidermidis SE072): 0.125 µg/mL
Peptide MIC + Tobramycin (bacterial isolates; S. epidermidis SE073): 8 µg/mL
Peptide MIC Alone (bacterial isolates; S. epidermidis SE073): 16 µg/mL
Tobramycin MIC + Peptide (bacterial isolates; S. epidermidis SE073): 0.125 µg/mL
Peptide MIC + Tobramycin (bacterial isolates; S. epidermidis SE080): 0.125 µg/mL
Peptide MIC Alone (bacterial isolates; S. epidermidis SE080): 2 µg/mL
Tobramycin MIC + Peptide (bacterial isolates; S. epidermidis SE080): 16 µg/mL
Peptide MIC + Tobramycin (bacterial isolates; [5]): 8 µg/mL
Tobramycin MIC + Peptide (bacterial isolates; [5]): 0.5 µg/mL
Peptide MIC Alone (bacterial isolates; S. maltophilia (strain code stands in r800, not shown), Tobramycin section): 32 µg/mL
Peptide MIC + Tobramycin (bacterial isolates; S. maltophilia SMA030): 8 µg/mL
Tobramycin MIC + Peptide (bacterial isolates; S. maltophilia SMA030): 1 µg/mL
Peptide MIC Alone (bacterial isolates; S. maltophilia SMA030, Tobramycin section): 32 µg/mL
FIC (bacterial isolates; peptide + Tobramycin, S. aureus SA014 MRSA): 0.27
FIC (bacterial isolates; [6]): 0.50
FIC (bacterial isolates; [7]): 0.50
FIC (bacterial isolates; peptide + Tobramycin, S. epidermidis SE080): 0.56
FIC (bacterial isolates; peptide + Tobramycin, S. maltophilia (strain code stands in r800, not shown)): 0.25
FIC (bacterial isolates; peptide + Tobramycin, S. maltophilia SMA030): 0.26
Peptide MIC + Tobramycin ([2]; S. aureus): 2 µg/mL
Peptide MIC Alone ([2]; S. aureus, Tobramycin section): 8 µg/mL
FIC ([2]; peptide + Tobramycin, S. aureus): 0.27
Peptide MIC + Tobramycin ([3]; A. baumannii ABI001): 2 µg/mL
Tobramycin MIC + Peptide ([3]; A. baumannii ABI001): 4 µg/mL
Peptide MIC Alone ([3]; A. baumannii ABI001, Tobramycin section): 4 µg/mL
Peptide MIC + Tobramycin ([3]; S. epidermidis SE072): 8 µg/mL
Tobramycin MIC + Peptide ([3]; S. epidermidis SE072): 0.125 µg/mL
Peptide MIC Alone ([3]; S. epidermidis SE072, Tobramycin section): 16 µg/mL
Peptide MIC + Tobramycin ([3]; S. epidermidis SE073): 8 µg/mL
Tobramycin MIC + Peptide ([3]; S. epidermidis SE073): 0.125 µg/mL
Peptide MIC Alone ([3]; S. epidermidis SE073, Tobramycin section): 16 µg/mL
Peptide MIC + Tobramycin ([3]; S. maltophilia SMA029): 8 µg/mL and 16 µg/mL
Peptide MIC Alone ([3]; S. maltophilia SMA029, Tobramycin section): 16 µg/mL and 32 µg/mL
FIC ([3]; peptide + Tobramycin, A. baumannii ABI001): 0.75
FIC [3, 6]: 0.50
FIC [3, 7]: 0.50
FIC ([3]; peptide + Tobramycin, S. maltophilia SMA029): 0.51 and 0.50
